Data as given in patent US9550811B2, “Peptide scaffold design” (BIONOR IMMUNO AS, priority 2010, dated 2017).

What was measured:
Test in all cases: REVEAL binding assay
Conditions in all cases: score as percentage of the signal generated by the positive control peptide
[1] = system: HLA-A1
[2] = system: HLA-A24
[3] = system: HLA-A29
Description: (§5) The REVEAL™ binding assay determined the ability of each candidate peptide to bind to one or more MHC class I alleles and stabilizing the MHC-peptide complex. […] Detection is based on the presence or absence of the native conformation of the MHC-peptide complex. Each peptide is given a score relative to the positive control peptide, which is a known T cell epitope.

[4] = system: HLA-B8
[5] = system: HLA-B14
[6] = system: HLA-B15
Description: as §5

[7] = biological target: HLA-A11 (Homo sapiens, UniProt P04439, A114D/F33Y/S129P)
Experimental: (§1) Binding properties to HLA for the ninemers listed in table 6 were tested for the following HLA-classes:
(§2) HLA-A1, HLA-A2, HLA-A3, HLA-A11, HLA-A24, HLA-A29, HLA-B7, HLA-B8, HLA-B14, HLA-B15, HLA-B27, HLA-B35, HLA-B40.
(§3) The peptides were synthesized as a Prospector PEPscreen®: Custom Peptide Library. […] Quality control by MALDI-TOF Mass Spectrometry was carried out on 100% of samples.
(§4) The REVEAL™ binding assay determined the ability of each candidate peptide to bind to one or more MHC class I alleles and stabilizing the MHC-peptide complex. By comparing the binding to that of high and intermediate affinity T cell epitopes, the most likely immunogenic peptides in a protein sequence can be identified. Detection is based on the presence or absence of the native conformation of the MHC-peptide complex. Each peptide is given a score relative to the positive control peptide, which is a known T cell epitope.

[8] = biological target: HLA-A2 (Homo sapiens, UniProt P04439, D140Y/D185E/D98H/E176V/E277Q/G131W/G231S/I119V/I121R/I166T/I218V/N151K/N90K/P208A/P217A/Q86G/Q94H/R138H/R169H)
Experimental: as §1, §2, §3, §4

[9] = biological target: HLA-A3 (Homo sapiens, UniProt P04439)
HLA-A3, sequence (P04439 25-299): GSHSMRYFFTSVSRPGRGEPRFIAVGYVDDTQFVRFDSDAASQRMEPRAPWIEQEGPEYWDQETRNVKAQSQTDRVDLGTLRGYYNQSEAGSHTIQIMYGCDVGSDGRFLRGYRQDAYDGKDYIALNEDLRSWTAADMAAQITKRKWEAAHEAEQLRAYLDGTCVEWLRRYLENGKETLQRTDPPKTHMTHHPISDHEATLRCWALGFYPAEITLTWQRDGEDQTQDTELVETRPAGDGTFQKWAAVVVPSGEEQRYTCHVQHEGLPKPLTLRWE
HLA-A3, sequence (P61769 21-119, further chain): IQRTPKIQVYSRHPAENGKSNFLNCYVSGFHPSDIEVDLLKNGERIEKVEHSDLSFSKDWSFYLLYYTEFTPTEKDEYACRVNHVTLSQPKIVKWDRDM
Experimental: as §1, §2, §3, §4

[10] = biological target: HLA-B27 (Homo sapiens, UniProt P01889, D138H/D201E/E176V/E204Q/G107R/H137Y/K202T/N104T/N87E/Q56L/Q94K/R106L/R155S/R180L/S101D/S121N/S48T/Y140D/Y33H/Y91C)
Experimental: as §1, §2, §3, §4

[11] = biological target: HLA-B7 (Homo sapiens, UniProt P01889)
HLA-B7, sequence (P61769 21-119): as the sequence (P61769 21-119, further chain) above
HLA-B7, sequence (P01889 25-299): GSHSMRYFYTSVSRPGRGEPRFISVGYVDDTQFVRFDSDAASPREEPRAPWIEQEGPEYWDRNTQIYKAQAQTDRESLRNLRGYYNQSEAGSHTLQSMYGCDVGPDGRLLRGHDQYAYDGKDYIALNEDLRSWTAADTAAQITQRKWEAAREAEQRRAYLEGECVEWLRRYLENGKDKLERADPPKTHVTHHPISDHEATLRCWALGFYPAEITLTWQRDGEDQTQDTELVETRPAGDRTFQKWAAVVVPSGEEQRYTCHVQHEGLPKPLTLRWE
Experimental: as §1, §2, §3, §4

[12] = system: HLA-B35
[13] = system: HLA-B40
Experimental: as §1, §2
The peptides were synthesized as a Prospector PEPscreen®: Custom Peptide Library. Peptides 8-15 amino acids in length were synthesized in 0.5-2 mg quantities with high average purity. Quality control by MALDI-TOF Mass Spectrometry was carried out on 100% of samples.
as §4, with “epitope. The score of the test peptide is reported quantitatively as a percentage of the signal generated by the positive control peptide, and the peptide is indicated as having a putative pass or fail result. Assay performance is confirmed by including an intermediate control peptide that is known to bind with weaker affinity to the allele under investigation.” for “epitope.”

Sequence: VIDTLTCGF
- REVEAL binding score, HLA-type A1 [1]: 25.85%
- REVEAL binding score, HLA-type A24 [2]: 0.95%
- REVEAL binding score, HLA-type A29 [3]: 13.90%
- REVEAL binding score, HLA-type B8 [4]: 10.00%
- REVEAL binding score, HLA-type B14 [5]: 0.11%
- REVEAL binding score, HLA-type B15 [6]: 9.49%
- REVEAL binding score, HLA-type A11 [7]: 6.00%
- REVEAL binding score, HLA-type A2 [8]: 5.14%
- REVEAL binding score, HLA-type A3 [9]: 2.93%
- REVEAL binding score, HLA-type B27 [10]: 1.11%
- REVEAL binding score, HLA-type B7 [11]: 0.45%
- REVEAL binding score, HLA-type B35 [12]: 3.26%
- REVEAL binding score, HLA-type B40 [13]: 27.24%

Sequence: GNIPGSTYS
- REVEAL binding score, HLA-type A1 [1]: 7.54%
- REVEAL binding score, HLA-type A24 [2]: 0.00%
- REVEAL binding score, HLA-type A29 [3]: 24.38%
- REVEAL binding score, HLA-type B8 [4]: 6.32%
- REVEAL binding score, HLA-type B14 [5]: 0.34%
- REVEAL binding score, HLA-type B15 [6]: 4.80%
- REVEAL binding score, HLA-type A11 [7]: 1.54%
- REVEAL binding score, HLA-type A2 [8]: 5.07%
- REVEAL binding score, HLA-type A3 [9]: 5.04%
- REVEAL binding score, HLA-type B27 [10]: 1.58%
- REVEAL binding score, HLA-type B7 [11]: 0.94%
- REVEAL binding score, HLA-type B35 [12]: 7.86%
- REVEAL binding score, HLA-type B40 [13]: 55.59%

Sequence: ARALAHGVR
- REVEAL binding score, HLA-type A1 [1]: 20.62%
- REVEAL binding score, HLA-type A24 [2]: 1.15%
- REVEAL binding score, HLA-type A29 [3]: 31.96%
- REVEAL binding score, HLA-type B8 [4]: 18.91%
- REVEAL binding score, HLA-type B14 [5]: 1.10%
- REVEAL binding score, HLA-type B15 [6]: 13.58%
- REVEAL binding score, HLA-type A11 [7]: 3.83%
- REVEAL binding score, HLA-type A2 [8]: 6.72%
- REVEAL binding score, HLA-type A3 [9]: 2.35%
- REVEAL binding score, HLA-type B27 [10]: 3.55%
- REVEAL binding score, HLA-type B7 [11]: 4.70%
- REVEAL binding score, HLA-type B35 [12]: 2.45%
- REVEAL binding score, HLA-type B40 [13]: 50.23%

Sequence: YLPAVGAPI
- REVEAL binding score, HLA-type A1 [1]: 15.76%
- REVEAL binding score, HLA-type A24 [2]: 4.65%
- REVEAL binding score, HLA-type A29 [3]: 28.40%
- REVEAL binding score, HLA-type B8 [4]: 17.92%
- REVEAL binding score, HLA-type B14 [5]: 0.12%
- REVEAL binding score, HLA-type B15 [6]: 49.63%
- REVEAL binding score, HLA-type A11 [7]: 3.07%
- REVEAL binding score, HLA-type A2 [8]: 75.80%
- REVEAL binding score, HLA-type A3 [9]: 2.58%
- REVEAL binding score, HLA-type B27 [10]: 0.51%
- REVEAL binding score, HLA-type B7 [11]: 7.70%
- REVEAL binding score, HLA-type B35 [12]: 2.03%
- REVEAL binding score, HLA-type B40 [13]: 64.34%

Sequence: QIIGGNYLI
- REVEAL binding score, HLA-type A1 [1]: 21.63%
- REVEAL binding score, HLA-type A24 [2]: 12.60%
- REVEAL binding score, HLA-type A29 [3]: 13.60%
- REVEAL binding score, HLA-type B8 [4]: 10.61%
- REVEAL binding score, HLA-type B14 [5]: 0.40%
- REVEAL binding score, HLA-type B15 [6]: 29.59%
- REVEAL binding score, HLA-type A11 [7]: 4.06%
- REVEAL binding score, HLA-type A2 [8]: 73.54%
- REVEAL binding score, HLA-type A3 [9]: 6.30%
- REVEAL binding score, HLA-type B27 [10]: 0.91%
- REVEAL binding score, HLA-type B7 [11]: 52.04%
- REVEAL binding score, HLA-type B35 [12]: 8.99%
- REVEAL binding score, HLA-type B40 [13]: 83.60%

Sequence: DLMGYIPLV
- REVEAL binding score, HLA-type A1 [1]: 16.67%
- REVEAL binding score, HLA-type A24 [2]: 1.14%
- REVEAL binding score, HLA-type A29 [3]: 25.64%
- REVEAL binding score, HLA-type B8 [4]: 22.65%
- REVEAL binding score, HLA-type B14 [5]: 0.23%
- REVEAL binding score, HLA-type B15 [6]: 7.67%
- REVEAL binding score, HLA-type A11 [7]: 5.01%
- REVEAL binding score, HLA-type A2 [8]: 103.34%
- REVEAL binding score, HLA-type A3 [9]: 4.66%
- REVEAL binding score, HLA-type B27 [10]: 1.05%
- REVEAL binding score, HLA-type B7 [11]: 4.84%
- REVEAL binding score, HLA-type B35 [12]: 2.49%
- REVEAL binding score, HLA-type B40 [13]: 39.33%

Sequence: ADLMGYIPL
- REVEAL binding score, HLA-type A1 [1]: 31.05%
- REVEAL binding score, HLA-type A24 [2]: 0.61%
- REVEAL binding score, HLA-type A29 [3]: 14.51%
- REVEAL binding score, HLA-type B8 [4]: 11.40%
- REVEAL binding score, HLA-type B14 [5]: 0.13%
- REVEAL binding score, HLA-type B15 [6]: 8.30%
- REVEAL binding score, HLA-type A11 [7]: 3.35%
- REVEAL binding score, HLA-type A2 [8]: 8.06%
- REVEAL binding score, HLA-type A3 [9]: 1.93%
- REVEAL binding score, HLA-type B27 [10]: 1.01%
- REVEAL binding score, HLA-type B7 [11]: 0.73%
- REVEAL binding score, HLA-type B35 [12]: 2.08%
- REVEAL binding score, HLA-type B40 [13]: 26.33%

Sequence: TGNIPGSTY
- REVEAL binding score, HLA-type A1 [1]: 10.58%
- REVEAL binding score, HLA-type A24 [2]: 0.86%
- REVEAL binding score, HLA-type A29 [3]: 35.10%
- REVEAL binding score, HLA-type B8 [4]: 10.25%
- REVEAL binding score, HLA-type B14 [5]: 1.15%
- REVEAL binding score, HLA-type B15 [6]: 52.30%
- REVEAL binding score, HLA-type A11 [7]: 6.06%
- REVEAL binding score, HLA-type A2 [8]: 3.59%
- REVEAL binding score, HLA-type A3 [9]: 13.04%
- REVEAL binding score, HLA-type B27 [10]: 1.98%
- REVEAL binding score, HLA-type B7 [11]: 1.32%
- REVEAL binding score, HLA-type B35 [12]: 48.40%
- REVEAL binding score, HLA-type B40 [13]: 38.15%

Sequence: ITFSIYLIV
- REVEAL binding score, HLA-type A1 [1]: 9.89%
- REVEAL binding score, HLA-type A24 [2]: 0.77%
- REVEAL binding score, HLA-type A29 [3]: 24.10%
- REVEAL binding score, HLA-type B8 [4]: 11.38%
- REVEAL binding score, HLA-type B14 [5]: 1.53%
- REVEAL binding score, HLA-type B15 [6]: 6.68%
- REVEAL binding score, HLA-type A11 [7]: 5.31%
- REVEAL binding score, HLA-type A2 [8]: 43.08%
- REVEAL binding score, HLA-type A3 [9]: 1.66%
- REVEAL binding score, HLA-type B27 [10]: 4.79%
- REVEAL binding score, HLA-type B7 [11]: 4.32%
- REVEAL binding score, HLA-type B35 [12]: 12.30%
- REVEAL binding score, HLA-type B40 [13]: 78.84%

Sequence: GNLPGCSFS
- REVEAL binding score, HLA-type A1 [1]: 6.44%
- REVEAL binding score, HLA-type A24 [2]: 1.13%
- REVEAL binding score, HLA-type A29 [3]: 13.48%
- REVEAL binding score, HLA-type B8 [4]: 8.71%
- REVEAL binding score, HLA-type B14 [5]: 0.81%
- REVEAL binding score, HLA-type B15 [6]: 3.96%
- REVEAL binding score, HLA-type A11 [7]: 2.41%
- REVEAL binding score, HLA-type A2 [8]: 6.11%
- REVEAL binding score, HLA-type A3 [9]: 3.54%
- REVEAL binding score, HLA-type B27 [10]: 13.44%
- REVEAL binding score, HLA-type B7 [11]: 1.84%
- REVEAL binding score, HLA-type B35 [12]: 4.80%
- REVEAL binding score, HLA-type B40 [13]: 80.68%
